Columns and labels:
[1] = test system: PDE4A, PDE4B, PDE4D, PDE7A, PDE7B, PDE8A, PDE3A; assay: Summary of PDE inhibitor profile; design: key to PDE inhibitor profile (Table 17): (1): Strong PDE4A, PDE4B inhibitor; (2): Strong PDE4A inhibitor; (3): Strong PDE4B, moderate PDE4A inhibitor; (4): Moderate PDE4A, PDE4B inhibitor; (5): Moderate PDE4B inhibitor; key to inhibitor class, Table 15: (1): Strong PDE4A5 inhibitor; (2): Strong PDE4A, 4B inhibitor; Moderate PDE4D inhibitor; (3): Strong PDE4A. 4B inhibitor; (4): Strong PDE4A, 4B, PDE7A inhibitor: Weak PDE4D inhibitor; conditions: for PDE inhibitor profile (Table 17): overall classification, Table 17 footnotes
PDE4A1 = molecular target: T1, PDE4A1 (Mus musculus, UniProt O89084); assay: 5FOA growth assay (high throughput screen, ED50) in fission yeast strain expressing PDE4A1; type: cell-based; conditions: 20 uM; PDE 4A1
T1 construct: targets used in the assays are full-length proteins (as opposed to simply the catalytic domain); expressed in transfected cells; host or cells: Schizosaccharomyces pombe, PDE gene integrated in place of cgs2
T1 sequence (O89084 1-610 isoform O89084-2): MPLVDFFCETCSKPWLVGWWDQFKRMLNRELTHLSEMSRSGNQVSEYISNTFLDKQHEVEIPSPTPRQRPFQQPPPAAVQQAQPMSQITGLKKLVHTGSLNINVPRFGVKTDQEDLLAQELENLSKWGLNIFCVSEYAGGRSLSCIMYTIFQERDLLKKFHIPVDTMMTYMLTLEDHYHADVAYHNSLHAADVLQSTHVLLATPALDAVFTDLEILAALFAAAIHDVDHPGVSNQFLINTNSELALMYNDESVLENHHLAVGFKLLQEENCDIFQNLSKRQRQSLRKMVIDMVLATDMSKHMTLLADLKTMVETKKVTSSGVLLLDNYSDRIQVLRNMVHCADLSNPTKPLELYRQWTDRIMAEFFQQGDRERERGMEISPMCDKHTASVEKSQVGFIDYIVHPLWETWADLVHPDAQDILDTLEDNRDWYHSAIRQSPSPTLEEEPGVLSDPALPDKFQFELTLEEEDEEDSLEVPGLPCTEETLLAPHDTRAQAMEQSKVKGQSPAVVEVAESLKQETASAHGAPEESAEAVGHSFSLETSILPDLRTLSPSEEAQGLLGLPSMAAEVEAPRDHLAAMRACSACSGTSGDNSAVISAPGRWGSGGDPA
Experimental: (§1) High throughput drug screens were carried out at the Broad Institute's Chemical Biology Program screening facility (Broad Institute, Cambridge, Mass.). Depending upon the strain, cultures were pregrown to exponential phase in EMM complete medium containing from 0.5 to 2.5 mM cAMP to repress fbp1-ura4 transcription. […] Starting cell concentrations ranged from 0.5×10^5 to 4×10^5 cells/ml depending on the screening strain. […] Other positive control dishes contained 5 mM cAMP in the 5FOA medium. Cultures were grown for 48 hours at 30° C., sealed in an airtight container with moist paper towels to prevent evaporation. Optical densities (OD600) of cultures were measured using a microplate reader. Bioinformatic analysis of the results to determine composite Z scores was performed as previously described^30, 31.
(§2) To determine whether the 5FOA growth phenotype could be exploited for high throughput drug screening, strains expressing PDE2A, PDE4A, PDE4B, or PDE8A were pre-grown in EMM medium containing cAMP and then transferred to 5FOA medium in 384 well microtiter plates in the presence or absence of cAMP. OD600 measurements were taken after 48 hours incubation at 30° C.
(§3) Cells were pregrown in EMM medium [MP Biomedicals (Solon, Ohio), 3% glucose, filter-sterilized to avoid carmelization, which would introduce variability into the optical density of the medium] containing from 0 mM to 2.5 mM cAMP (or either 0.5 mM or 1.0 mM cGMP). This was to repress expression of the fbp1-ura4 reporter prior to exposure of cells to 5FOA medium. Cells were grown at 30° C. to exponential phase (approximately 10^7 cells/ml). […] Starting cell concentrations ranged from 0.5×10^5 to 4×10^5 cells/ml depending on the screening strain. […] Other positive control dishes contained 5 mM cAMP in the 5FOA medium for PDEs that lack appropriate control compounds. Cultures were grown for 48 hours at 30° C., sealed in an airtight container with moist paper towels to prevent evaporation. Optical densities (OD600) of cultures were measured using a microplate reader. Bioinformatic analysis of the results to determine composite Z scores was performed as previously described (1, 3).

PDE4B3 = molecular target: T2, PDE4B3 (Mus musculus, UniProt Q8VBU5); assay: 5FOA growth assay in fission yeast strain expressing PDE4B3; type: cell-based, Murine; conditions: 20 uM
T2 construct: targets used in the assays are full-length proteins (as opposed to simply the catalytic domain); expressed in transfected cells; host or cells: Schizosaccharomyces pombe, PDE gene integrated in place of cgs2
T2 sequence (Q8VBU5 1-721): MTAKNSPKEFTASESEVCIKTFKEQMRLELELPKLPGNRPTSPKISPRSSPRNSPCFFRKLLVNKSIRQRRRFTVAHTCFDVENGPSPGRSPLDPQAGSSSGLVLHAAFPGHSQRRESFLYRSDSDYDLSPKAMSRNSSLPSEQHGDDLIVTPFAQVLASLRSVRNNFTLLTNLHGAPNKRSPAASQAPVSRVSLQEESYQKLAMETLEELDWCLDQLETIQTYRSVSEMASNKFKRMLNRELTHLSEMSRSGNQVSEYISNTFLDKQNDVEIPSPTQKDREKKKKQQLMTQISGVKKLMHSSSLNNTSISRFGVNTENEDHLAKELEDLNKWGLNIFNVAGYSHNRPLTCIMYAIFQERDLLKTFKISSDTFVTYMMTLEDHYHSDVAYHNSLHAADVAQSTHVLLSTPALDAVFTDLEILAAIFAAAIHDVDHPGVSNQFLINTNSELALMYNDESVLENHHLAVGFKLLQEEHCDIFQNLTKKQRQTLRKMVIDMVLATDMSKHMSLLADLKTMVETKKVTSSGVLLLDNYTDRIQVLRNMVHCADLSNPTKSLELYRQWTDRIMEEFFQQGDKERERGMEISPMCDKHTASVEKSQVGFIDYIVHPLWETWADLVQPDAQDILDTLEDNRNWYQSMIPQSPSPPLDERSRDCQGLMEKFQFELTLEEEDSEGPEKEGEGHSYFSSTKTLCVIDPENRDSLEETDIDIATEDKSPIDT
Experimental: as §1, §2, §3

PDE4A5 = molecular target: T3, PDE4A5 (Rattus norvegicus, UniProt P54748); assay: 5FOA growth assay in fission yeast strain expressing PDE4A5; type: cell-based; conditions: 20 uM
T3 construct: targets used in the assays are full-length proteins (as opposed to simply the catalytic domain); expressed in transfected cells; host or cells: Schizosaccharomyces pombe, PDE gene integrated in place of cgs2
T3 sequence (P54748 1-844): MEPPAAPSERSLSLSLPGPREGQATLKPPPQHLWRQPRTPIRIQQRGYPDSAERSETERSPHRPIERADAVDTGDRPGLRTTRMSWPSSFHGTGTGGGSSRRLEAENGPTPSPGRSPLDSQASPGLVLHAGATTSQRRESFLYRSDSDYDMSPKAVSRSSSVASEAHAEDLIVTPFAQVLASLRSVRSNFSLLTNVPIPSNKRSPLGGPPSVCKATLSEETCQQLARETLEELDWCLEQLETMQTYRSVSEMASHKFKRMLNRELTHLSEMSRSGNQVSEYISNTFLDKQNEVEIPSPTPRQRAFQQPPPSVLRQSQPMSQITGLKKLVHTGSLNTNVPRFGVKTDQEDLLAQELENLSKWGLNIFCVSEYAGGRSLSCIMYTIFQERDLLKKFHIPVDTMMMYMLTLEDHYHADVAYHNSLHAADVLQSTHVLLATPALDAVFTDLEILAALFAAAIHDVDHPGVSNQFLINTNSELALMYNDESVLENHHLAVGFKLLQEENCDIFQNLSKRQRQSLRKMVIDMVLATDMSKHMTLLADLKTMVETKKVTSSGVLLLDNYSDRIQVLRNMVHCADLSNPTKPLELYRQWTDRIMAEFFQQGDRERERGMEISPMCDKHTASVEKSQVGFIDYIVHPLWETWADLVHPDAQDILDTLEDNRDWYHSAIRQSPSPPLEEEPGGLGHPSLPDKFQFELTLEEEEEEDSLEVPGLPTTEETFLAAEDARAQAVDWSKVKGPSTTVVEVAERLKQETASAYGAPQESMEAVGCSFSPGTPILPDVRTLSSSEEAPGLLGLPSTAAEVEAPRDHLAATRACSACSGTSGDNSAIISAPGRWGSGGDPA
Experimental: High throughput drug screens were carried out at the Broad Institute's Chemical Biology Program screening facility (Broad Institute, Cambridge, Mass.). Depending upon the strain, cultures were pregrown to exponential phase in EMM complete medium containing from 0.5 to 2.5 mM cAMP to repress fbp1-ura4 transcription. Cells were collected by centrifugation, resuspended in 5FOA medium, and 25 μl were transferred to 384-well microtiter dishes (untreated, with flat clear bottoms) that had been pre-filled with 25 μl 5FOA medium and pre-pinned with 100 nl of compounds (stock solutions were generally 10 mM) from a subset of the Prestwick Bioactive and the Microsource Spectrum compound libraries. Starting cell concentrations ranged from 0.5×10^5 to 4×10^5 cells/ml depending on the screening strain. […] Other positive control dishes contained 5 mM cAMP in the 5FOA medium. Cultures were grown for 48 hours at 30° C., sealed in an airtight container with moist paper towels to prevent evaporation. Optical densities (OD600) of cultures were measured using a microplate reader. Bioinformatic analysis of the results to determine composite Z scores was performed as previously described^30, 31.
Cells were pregrown in EMM medium [MP Biomedicals (Solon, Ohio), 3% glucose, filter-sterilized to avoid carmelization, which would introduce variability into the optical density of the medium] containing from 0 mM to 2.5 mM cAMP (or either 0.5 mM or 1.0 mM cGMP). This was to repress expression of the fbp1-ura4 reporter prior to exposure of cells to 5FOA medium. Cells were grown at 30° C. to exponential phase (approximately 10^7 cells/ml). Cells were collected by centrifugation and resuspended in 5FOA medium, and 25 μl were transferred to 384-well microtiter dishes (untreated, with flat clear bottoms) that had been pre-filled with 25 μl 5FOA medium and pre-pinned with 100 nl of compounds (stock solutions were generally 10 mM). Starting cell concentrations ranged from 0.5×10^5 to 4×10^5 cells/ml depending on the screening strain. […] Other positive control dishes contained 5 mM cAMP in the 5FOA medium for PDEs that lack appropriate control compounds. Cultures were grown for 48 hours at 30° C., sealed in an airtight container with moist paper towels to prevent evaporation. Optical densities (OD600) of cultures were measured using a microplate reader. Bioinformatic analysis of the results to determine composite Z scores was performed as previously described (1, 3).

COC(=O)C1=C(C)N(C)C(=O)/C1=C\c1cccs1 [Compound 27-1]
inhibitor class, Table 15 [1]: 27-1 (1)

CCn1c2ccccc2c2nc3ccccc3nc21 [1422, G02]
1 Assay (20 uM) 4A1 (PDE4A1): 70.89 ND ND ND ND
1 Assay (20 uM) 4B3 (PDE4B3; PDE 4B3): 103.69 ND ND ND ND
PDE inhibitor profile (Table 17) [1]: 1422, G02 (1)

CCCn1c2ccccc2c2nc3ccccc3nc21 [1422, K02]
1 Assay (20 uM) 4A1 (PDE4A1): 72.21 ND ND ND ND
1 Assay (20 uM) 4B3 (PDE4B3; PDE 4B3): 115.27 ND ND ND ND
PDE inhibitor profile (Table 17) [1]: 1422, K02 (1)

COC(=O)C1=C(C)N(c2cccc(C)c2)C(=O)/C1=C\c1cccs1 [Compound 27-5]
inhibitor class, Table 15 [1]: 27-5 (2)

CCOC(=O)c1sc2sc(C(=O)OCC)c(-c3ccc(Cl)cc3)c2c1N [2055, N01]
1 Assay (20 uM) 4B3 (PDE4B3): 1.8421 ND ND ND ND
1 Assay (20 uM) 4A5 (PDE4A5): 0.582 ND ND ND ND

COC(=O)C1=C(C)N(CC(C)C)C(=O)/C1=C\c1ccco1 [Compound 27-2]
inhibitor class, Table 15 [1]: 27-2 (2)

CC(C)n1c2ccccc2c2nc3ccccc3nc21 [1422, I02]
1 Assay (20 uM) 4A1 (PDE4A1): 56.62 ND ND ND ND
1 Assay (20 uM) 4B3 (PDE4B3; PDE 4B3): 99.04 ND ND ND ND
PDE inhibitor profile (Table 17) [1]: 1422, I02 (1)

COC(=O)C1=C(C)N(CC(C)C)C(=O)/C1=C\c1cccs1 [Compound 27-3]
inhibitor class, Table 15 [1]: 27-3 (1)

COC(=O)C1=CN(Cc2ccccc2)C(=O)/C1=C\c1cccs1 [Compound 27-4]
inhibitor class, Table 15 [1]: 27-4 (1)

CC(C)Cn1c2ccccc2c2nc3ccccc3nc21 [1422, M02]
1 Assay (20 uM) 4A1 (PDE4A1): 40.53 ND ND ND ND
1 Assay (20 uM) 4B3 (PDE4B3; PDE 4B3): 86.04 ND ND ND ND
PDE inhibitor profile (Table 17) [1]: 1422, M02 (2)

COC(=O)C1=C(C)N(c2ccccc2Cl)C(=O)/C1=C\c1cccs1 [Compound 27-8]
inhibitor class, Table 15 [1]: 27-8 (2)

C=CCn1c2ccccc2c2nc3ccccc3nc21 [1427, P20]
1 Assay (20 uM) 4A1 (PDE4A1): 31.38 ND ND ND ND
1 Assay (20 uM) 4B3 (PDE4B3; PDE 4B3): 103.46 ND ND ND ND
PDE inhibitor profile (Table 17) [1]: 1427, P20 (3)

COC(=O)C1=C(C)N(c2ccc(F)cc2)C(=O)/C1=C\c1cccs1 [Compound 27-6]
inhibitor class, Table 15 [1]: 27-6 (4)

O=C(O)Cn1c2ccc(Cl)cc2c2nc3ccccc3nc21 [1429, L06]
1 Assay (20 uM) 4A1 (PDE4A1): 29.15 ND ND ND ND
1 Assay (20 uM) 4B3 (PDE4B3; PDE 4B3): 41.77 ND ND ND ND
PDE inhibitor profile (Table 17) [1]: 1429, L06 (4)

COC(=O)C1=C(C)N(c2cccc(C(F)(F)F)c2)C(=O)/C1=C\c1cccs1 [Compound 27-7]
inhibitor class, Table 15 [1]: 27-7 (3)

COC(=O)c1sc(SC)c(C#N)c1-c1ccco1 [2055, C21]
1 Assay (20 uM) 4B3 (PDE4B3): 21.4955 ND ND ND ND
1 Assay (20 uM) 4A5 (PDE4A5): 2.07 ND ND ND ND
